Experimental data from BigSolDB 2.1.

Cc1c(C(=O)/C=C/c2ccccc2)[n+](=O)c2ccccc2n1[O-]
solubility (mole fraction)
Details | 283.15 K | 288.15 K | 293.15 K | 298.15 K | 303.15 K | 308.15 K | 313.15 K | 318.15 K | 323.15 K | 328.15 K
in DMF | 0.00549 | 0.00639 | 0.00748 | 0.00856 | 0.00978 | 0.0111 | 0.0127 | 0.0145 | 0.0163 | 0.0187
in DMSO | – | – | 0.00722 | 0.00807 | 0.00913 | 0.0103 | 0.0117 | 0.0132 | 0.0149 | 0.0167
in ethanol | 9.81e-05 | 0.000123 | 0.000151 | 0.00019 | 0.000233 | 0.000288 | 0.000351 | 0.000425 | 0.000512 | 0.000611
in isopropanol | 8.14e-05 | 0.000104 | 0.000133 | 0.00017 | 0.000217 | 0.000278 | 0.000348 | 0.000437 | 0.000541 | 0.000668
in water | 2.49e-06 | 2.93e-06 | 3.4e-06 | 3.95e-06 | 4.62e-06 | 5.32e-06 | 6.12e-06 | 7e-06 | 7.96e-06 | 9.03e-06
